Drawing on US6063789A, “Aminoisoquinolines and aminotheinopyridine derivatives and their use as anti-inflammatory agents” (priority 1996, dated 2000), this text covers IC50 and antihypertensive activity for five molecules.

SMILES strings stand for the structures. Where a name gives a salt, the structure may show the parent alone. A value given as a limit tells only on which side of the number the result lay.

Assay [1] addresses T1, inducible isoform of the enzyme nitric oxide synthase (NOS) (Mus musculus, UniProt P29477).
T1 construct: Nitric oxide synthase is produced by cells in response to interferon-g (IFNg) and lipopolysaccharide (LPS); endogenous in cells; host or cells: J774A-1 murine macrophage cell line, induced with LPS and IFN-gamma; crude cell lysate
Nature of the assay: nitric oxide synthetase activity screen (conversion of 3H-L-arginine to 3H-L-citrulline by lysate of induced J774A-1 macrophages). The assay is classed as biochemical. The conditions noted are these: lysate of LPS/IFNg-induced murine macrophage J774A-1 cells; 1 hour at room temperature; read-out: IC50 (the concentration of drug substance which gives 50% enzyme inhibition in the assay).
Method: The activity of compounds according to the invention was tested in the following screen.
The activity of compounds of formula I, or a pharmaceutically acceptable salt, enantiomer or tautomer thereof, may be screened for nitric oxide synthetase activity by a procedure based on that of Forstennann et al. (1992) Eur. J. Pharm. […] Nitric oxide synthetase converts ^3 H-L-arginine to ^3 H-L-citrulline which can be separated by cation exchange chromatography and quantified by liquid scintillation counting.
Enzyme is prepared, after induction, from the cultured murine macrophage cell line J774A-1 (obtained from the laboratories of the Imperial Cancer Research Fund). J774A-1 cells are cultured in Dulbeccos Modified Eagles Medium (DMEM) supplemented with 10% foetal bovine serum, 4 mM L-glutamine and antibiotics (100 units/ml penicillin G, 100 mg/ml streptomycin & 0.25 mg/ml amphotericin B). Cells are routinely grown in 225 cm^2 flasks containing 35 ml medium kept at 37° C. and in a humidified atmosphere containing 5% CO2. Nitric oxide synthase is produced by cells in response to interferon-g (IFNg) and lipopolysaccharide (LPS). The medium from confluent culture flasks is removed and replaced with 25 ml (per flask) of fresh medium containing 1 mg/ml LPS and 10 units/ml IFNg. After a period of 17-20 hours in culture, harvesting of cells is accomplished by scraping the cell sheet from the flask surface into the culture medium. Cells are collected by centrifugation (1000 g for 10 minutes) and lysate prepared by adding to the cell pellet a solution containing 50 mM Tris-HCl (pH 7.5 at 20° C.), 10% (v/v) glycerol, 0.1% (v/v) Triton-X-100, 0.1 mM dithiothreitol and a cocktail of protease inhibitors comprising leupeptin (2 mg/ml), soya bean trypsin inhibitor (10 mg/ml), aprotinin (5 mg/ml) & phenylmethylsulphonyl fluoride (50 mg/ml).
For the assay, 25 μl substrate cocktail (50 mM Tris-HCl (pH 7.5 at 20° C.), 400 μM NADPH, 20 μM flavin adenine dinucleotide, 20 μM flavin mononucleotide, 4 μM tetrahydrobiopterin, 12 μM L-arginine and 0.025 mCi L-[^3 H] arginine) is added to wells of a 96 well filter plate (0.45 μM pore size) containing 25 μl of a solution of test compound in 50 mM Tris-HCl. The reaction is started by adding 50 μl of cell lysate (prepared as above) and after incubation for 1 hour at room temperature is terminated by addition of 50 μl of an aqueous solution of 3 mM nitroarginine and 21 mM EDTA.
Labelled L-citrulline is separated from labelled L-arginine using Dowex AG-SOW. […] After allowing the samples to dry the L-citrulline is quantified by scintillation counting.
Compounds are tested at a range of concentrations and from the inhibitions obtained IC50 values are calculated.

For assay [2] the following is noted: cited from J Med. Chem., vol 20, No 3, March 1977, pp 449 to 452; cited from earlier work.

Turning to `NC1=NC(c2nccs2)Cc2ccccc21` (centres unmarked) [Example 46, 1-Amino-3-(2-thiazolyl)-3,4-dihydroisoquinoline hydrochloride], the IC50 in assay [1] was less than 25 µM. On to `NC1=NC(c2ccccc2)Cc2ccccc21` (centres unmarked) [Example 2, 1-Amino-3-phenyl-3,4-dihydroisoquinoline hydrochloride], for which, in assay [1], the IC50 is less than 25 µM. For `C#CC1Cc2ccccc2C(N)=N1` (centres unmarked) [Example 41, 1-Amino-3-ethynyl-3,4-dihydroisoquinoline hydrochloride], the IC50 in assay [1] was less than 25 µM. Still for that read-out and setting: the same measure for `CC1Cc2ccccc2C(N)=N1` (centres unmarked) [Example 49, 1-Amino-3-methyl-3,4-dihydroisoquinoline hydroiodide]: less than 25 µM. As for `NC1=NCCc2ccccc21` [1-amino-3,4-dihydroisoquinoline], in assay [2], the antihypertensive activity result is “has antihypertensive activity”.
